Holding throughout (assay): Kinase selectivity, scanMAX Kinase assay panel (DiscoverX), % control at 1 uM
Holding throughout (format): binding

Assay [1] deals with T1, scanMAX Kinase assay panel (Homo sapiens, UniProt O14920).
T1 construct: purchased DiscoverX
T1 sequence (O14920 1-756): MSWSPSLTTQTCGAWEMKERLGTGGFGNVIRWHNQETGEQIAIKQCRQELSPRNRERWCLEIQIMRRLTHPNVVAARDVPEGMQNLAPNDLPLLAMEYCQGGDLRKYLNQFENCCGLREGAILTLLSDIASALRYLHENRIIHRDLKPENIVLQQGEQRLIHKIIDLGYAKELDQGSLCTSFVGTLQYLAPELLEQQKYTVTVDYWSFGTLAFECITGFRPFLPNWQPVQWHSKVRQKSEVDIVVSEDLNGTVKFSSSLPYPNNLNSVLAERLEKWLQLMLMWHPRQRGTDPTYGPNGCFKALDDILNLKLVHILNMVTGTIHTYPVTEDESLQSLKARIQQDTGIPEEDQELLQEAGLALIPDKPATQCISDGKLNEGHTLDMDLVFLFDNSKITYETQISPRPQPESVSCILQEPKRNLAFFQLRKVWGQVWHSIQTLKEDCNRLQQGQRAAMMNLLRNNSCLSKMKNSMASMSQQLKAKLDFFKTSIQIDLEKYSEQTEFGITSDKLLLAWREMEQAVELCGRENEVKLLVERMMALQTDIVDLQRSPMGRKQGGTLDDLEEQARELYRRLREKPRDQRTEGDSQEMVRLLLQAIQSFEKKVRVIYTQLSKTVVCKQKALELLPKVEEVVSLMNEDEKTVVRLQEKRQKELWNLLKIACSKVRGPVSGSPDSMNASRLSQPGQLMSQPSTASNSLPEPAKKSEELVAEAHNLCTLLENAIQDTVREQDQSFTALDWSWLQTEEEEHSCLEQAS
As to conditions: IKK-beta; 1 uM; read-out: Percent Control (%). In short, it runs like this:
(§1)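 Single-point screen at 1 uM compound in DMSO. Lower % control means stronger inhibition, with the cutoff for activity set at <35%.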

The target in assay [2] is T2, scanMAX Kinase assay panel (Homo sapiens, UniProt O94804).
T2 construct: purchased DiscoverX
As to conditions: LOK; 1 uM; read-out: Percent Control (%). In short, it runs like this: as §1

Assay [3] has as its target T3, scanMAX Kinase assay panel (Homo sapiens, UniProt Q16659).
T3 construct: purchased DiscoverX
The following applies: ERK3; 1 uM; read-out: Percent Control (%). The essentials:
as §1

Assay [4] concerns the target T4, scanMAX Kinase assay panel (Homo sapiens, UniProt Q13153).
T4 construct: purchased DiscoverX
The following applies: PAK1; 1 uM; read-out: Percent Control (%). In short, it runs like this:
as §1

Assay [5] concerns the target T5, scanMAX Kinase assay panel (Homo sapiens, UniProt P19525).
T5 construct: purchased DiscoverX
The following applies: PRKR; 1 uM; read-out: Percent Control (%). In short, it runs like this: as §1

Assay [6] concerns the target T6, scanMAX Kinase assay panel (Homo sapiens, UniProt P42684).
T6 construct: purchased DiscoverX
The following applies: ABL2; 1 uM; read-out: Percent Control (%). The essentials: as §1

For assay [7], the target named is T7, scanMAX Kinase assay panel (Homo sapiens, UniProt Q9UPE1).
T7 construct: purchased DiscoverX
The following applies: SRPK3; 1 uM; read-out: Percent Control (%). In short, it runs like this: as §1

Assay [8] concerns the target T8, scanMAX Kinase assay panel (Homo sapiens, UniProt Q13464).
T8 construct: purchased DiscoverX
As to conditions: ROCK1; 1 uM; read-out: Percent Control (%). In short, it runs like this:
as §1

The target of assay [9] is T9, scanMAX Kinase assay panel (Homo sapiens, UniProt Q12852).
T9 construct: purchased DiscoverX
T9 sequence (Q12852 1-859): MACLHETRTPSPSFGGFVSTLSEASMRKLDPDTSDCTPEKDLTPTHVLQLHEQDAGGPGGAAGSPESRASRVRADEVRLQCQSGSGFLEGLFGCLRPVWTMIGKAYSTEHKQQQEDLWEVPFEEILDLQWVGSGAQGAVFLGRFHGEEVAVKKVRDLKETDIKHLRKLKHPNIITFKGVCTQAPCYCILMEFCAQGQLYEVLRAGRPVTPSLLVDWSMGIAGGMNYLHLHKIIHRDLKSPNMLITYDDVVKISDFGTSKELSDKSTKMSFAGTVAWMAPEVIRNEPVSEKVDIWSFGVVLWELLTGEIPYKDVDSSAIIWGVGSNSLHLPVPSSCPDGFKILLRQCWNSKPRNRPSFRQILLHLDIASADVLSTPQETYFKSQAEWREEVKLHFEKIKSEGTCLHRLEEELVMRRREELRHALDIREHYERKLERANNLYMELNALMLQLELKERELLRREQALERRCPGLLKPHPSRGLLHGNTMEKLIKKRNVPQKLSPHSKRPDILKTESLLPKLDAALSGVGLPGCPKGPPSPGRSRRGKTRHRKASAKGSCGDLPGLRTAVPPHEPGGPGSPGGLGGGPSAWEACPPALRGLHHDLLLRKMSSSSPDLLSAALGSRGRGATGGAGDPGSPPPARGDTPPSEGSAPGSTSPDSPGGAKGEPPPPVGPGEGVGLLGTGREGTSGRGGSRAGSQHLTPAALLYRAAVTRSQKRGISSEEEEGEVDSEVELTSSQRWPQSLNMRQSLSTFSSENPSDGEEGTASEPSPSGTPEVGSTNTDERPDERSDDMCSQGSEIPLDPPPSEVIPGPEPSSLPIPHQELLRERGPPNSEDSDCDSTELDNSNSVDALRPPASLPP
The following applies: DLK; 1 uM; read-out: Percent Control (%). In short, it runs like this:
as §1

Assay [10] addresses T10, scanMAX Kinase assay panel (Homo sapiens, UniProt P37023).
T10 construct: purchased DiscoverX
As to conditions: ACVRL1; 1 uM; read-out: Percent Control (%). The essentials:
as §1

Assay [11] has as its target T11, scanMAX Kinase assay panel (Homo sapiens, UniProt P10721, V559D/V654A).
T11 construct: purchased DiscoverX
The following applies: KIT (V559D, V654A); 1 uM; read-out: Percent Control (%). The essentials: as §1

Assay [12] addresses T12, scanMAX Kinase assay panel (Homo sapiens, UniProt P19784).
T12 construct: purchased DiscoverX
The following applies: CSNK2A2; 1 uM; read-out: Percent Control (%). In short, it runs like this:
as §1

The target of assay [13] is T13, scanMAX Kinase assay panel (Homo sapiens, UniProt P00519, H396P).
T13 construct: purchased DiscoverX
As to conditions: 1 uM, read-out: Percent Control (%). In short, it runs like this: as §1

Like-named read-outs stand apart in the source and are kept apart here.

T12 sequence (P19784 whole entry): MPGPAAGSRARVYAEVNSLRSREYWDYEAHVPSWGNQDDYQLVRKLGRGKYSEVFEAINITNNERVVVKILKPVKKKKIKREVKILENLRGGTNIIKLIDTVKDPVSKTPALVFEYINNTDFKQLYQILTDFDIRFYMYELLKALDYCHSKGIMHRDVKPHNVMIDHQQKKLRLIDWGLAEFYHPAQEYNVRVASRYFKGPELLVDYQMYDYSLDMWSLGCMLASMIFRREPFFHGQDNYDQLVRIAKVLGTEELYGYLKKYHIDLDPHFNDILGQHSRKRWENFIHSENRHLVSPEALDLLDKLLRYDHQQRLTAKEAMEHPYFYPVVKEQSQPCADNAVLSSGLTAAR
T7 sequence (Q9UPE1 whole entry): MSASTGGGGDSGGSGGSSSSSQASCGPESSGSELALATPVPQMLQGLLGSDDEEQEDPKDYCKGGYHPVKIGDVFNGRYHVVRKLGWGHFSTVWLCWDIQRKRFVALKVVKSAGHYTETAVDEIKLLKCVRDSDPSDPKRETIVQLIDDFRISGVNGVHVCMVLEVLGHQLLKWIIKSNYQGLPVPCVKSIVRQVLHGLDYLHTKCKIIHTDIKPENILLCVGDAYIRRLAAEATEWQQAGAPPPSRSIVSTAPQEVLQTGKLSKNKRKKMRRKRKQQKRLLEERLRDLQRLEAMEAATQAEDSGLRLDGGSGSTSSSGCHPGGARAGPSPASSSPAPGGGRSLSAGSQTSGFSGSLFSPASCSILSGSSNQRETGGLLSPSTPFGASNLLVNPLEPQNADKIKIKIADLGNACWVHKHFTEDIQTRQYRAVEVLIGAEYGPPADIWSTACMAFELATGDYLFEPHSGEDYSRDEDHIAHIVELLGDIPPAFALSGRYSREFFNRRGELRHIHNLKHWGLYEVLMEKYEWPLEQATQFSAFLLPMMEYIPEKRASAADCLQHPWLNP
T3 sequence (Q16659 whole entry): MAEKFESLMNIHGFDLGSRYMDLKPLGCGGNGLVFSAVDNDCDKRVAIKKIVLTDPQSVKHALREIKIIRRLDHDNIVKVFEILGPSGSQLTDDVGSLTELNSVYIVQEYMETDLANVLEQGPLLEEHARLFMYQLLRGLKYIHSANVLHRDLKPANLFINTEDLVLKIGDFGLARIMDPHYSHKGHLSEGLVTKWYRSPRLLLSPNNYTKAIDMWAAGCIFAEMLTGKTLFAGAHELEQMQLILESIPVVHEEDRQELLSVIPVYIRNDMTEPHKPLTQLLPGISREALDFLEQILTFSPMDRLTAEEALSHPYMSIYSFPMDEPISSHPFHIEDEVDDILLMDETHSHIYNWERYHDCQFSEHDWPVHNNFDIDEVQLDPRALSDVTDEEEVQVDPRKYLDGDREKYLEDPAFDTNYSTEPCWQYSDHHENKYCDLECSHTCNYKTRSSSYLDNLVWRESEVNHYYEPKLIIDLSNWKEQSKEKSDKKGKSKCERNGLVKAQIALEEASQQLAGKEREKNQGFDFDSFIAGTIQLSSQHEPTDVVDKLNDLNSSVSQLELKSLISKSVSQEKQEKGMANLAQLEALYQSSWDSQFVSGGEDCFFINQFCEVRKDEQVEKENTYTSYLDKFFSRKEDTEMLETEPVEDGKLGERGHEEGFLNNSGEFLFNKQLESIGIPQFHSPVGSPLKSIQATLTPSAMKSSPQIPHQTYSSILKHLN
T2 sequence (O94804 whole entry): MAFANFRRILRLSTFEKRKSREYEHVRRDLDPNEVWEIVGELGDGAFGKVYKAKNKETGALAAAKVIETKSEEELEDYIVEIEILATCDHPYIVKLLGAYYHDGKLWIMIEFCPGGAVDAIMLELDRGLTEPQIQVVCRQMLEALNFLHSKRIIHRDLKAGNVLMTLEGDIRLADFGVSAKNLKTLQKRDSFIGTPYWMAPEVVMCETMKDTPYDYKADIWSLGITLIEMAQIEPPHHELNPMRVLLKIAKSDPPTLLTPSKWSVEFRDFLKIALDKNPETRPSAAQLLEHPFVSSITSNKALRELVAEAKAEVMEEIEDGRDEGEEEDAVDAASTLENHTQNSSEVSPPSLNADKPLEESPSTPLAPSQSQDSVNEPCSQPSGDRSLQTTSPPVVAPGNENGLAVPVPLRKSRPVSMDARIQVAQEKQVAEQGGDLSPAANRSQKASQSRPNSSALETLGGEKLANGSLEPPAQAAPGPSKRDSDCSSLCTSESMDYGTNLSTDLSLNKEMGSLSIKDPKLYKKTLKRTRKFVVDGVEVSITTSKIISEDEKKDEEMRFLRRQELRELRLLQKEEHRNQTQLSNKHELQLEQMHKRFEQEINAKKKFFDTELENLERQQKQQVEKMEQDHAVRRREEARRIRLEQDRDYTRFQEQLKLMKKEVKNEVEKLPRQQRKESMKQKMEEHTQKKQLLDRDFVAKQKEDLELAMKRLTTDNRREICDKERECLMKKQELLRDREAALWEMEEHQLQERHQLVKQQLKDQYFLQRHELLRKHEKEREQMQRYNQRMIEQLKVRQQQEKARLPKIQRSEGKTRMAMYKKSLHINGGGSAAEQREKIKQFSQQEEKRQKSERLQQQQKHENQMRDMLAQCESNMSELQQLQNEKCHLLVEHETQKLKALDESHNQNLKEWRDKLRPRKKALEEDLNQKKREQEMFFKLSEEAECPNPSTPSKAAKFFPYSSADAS
T6 sequence (P42684 whole entry): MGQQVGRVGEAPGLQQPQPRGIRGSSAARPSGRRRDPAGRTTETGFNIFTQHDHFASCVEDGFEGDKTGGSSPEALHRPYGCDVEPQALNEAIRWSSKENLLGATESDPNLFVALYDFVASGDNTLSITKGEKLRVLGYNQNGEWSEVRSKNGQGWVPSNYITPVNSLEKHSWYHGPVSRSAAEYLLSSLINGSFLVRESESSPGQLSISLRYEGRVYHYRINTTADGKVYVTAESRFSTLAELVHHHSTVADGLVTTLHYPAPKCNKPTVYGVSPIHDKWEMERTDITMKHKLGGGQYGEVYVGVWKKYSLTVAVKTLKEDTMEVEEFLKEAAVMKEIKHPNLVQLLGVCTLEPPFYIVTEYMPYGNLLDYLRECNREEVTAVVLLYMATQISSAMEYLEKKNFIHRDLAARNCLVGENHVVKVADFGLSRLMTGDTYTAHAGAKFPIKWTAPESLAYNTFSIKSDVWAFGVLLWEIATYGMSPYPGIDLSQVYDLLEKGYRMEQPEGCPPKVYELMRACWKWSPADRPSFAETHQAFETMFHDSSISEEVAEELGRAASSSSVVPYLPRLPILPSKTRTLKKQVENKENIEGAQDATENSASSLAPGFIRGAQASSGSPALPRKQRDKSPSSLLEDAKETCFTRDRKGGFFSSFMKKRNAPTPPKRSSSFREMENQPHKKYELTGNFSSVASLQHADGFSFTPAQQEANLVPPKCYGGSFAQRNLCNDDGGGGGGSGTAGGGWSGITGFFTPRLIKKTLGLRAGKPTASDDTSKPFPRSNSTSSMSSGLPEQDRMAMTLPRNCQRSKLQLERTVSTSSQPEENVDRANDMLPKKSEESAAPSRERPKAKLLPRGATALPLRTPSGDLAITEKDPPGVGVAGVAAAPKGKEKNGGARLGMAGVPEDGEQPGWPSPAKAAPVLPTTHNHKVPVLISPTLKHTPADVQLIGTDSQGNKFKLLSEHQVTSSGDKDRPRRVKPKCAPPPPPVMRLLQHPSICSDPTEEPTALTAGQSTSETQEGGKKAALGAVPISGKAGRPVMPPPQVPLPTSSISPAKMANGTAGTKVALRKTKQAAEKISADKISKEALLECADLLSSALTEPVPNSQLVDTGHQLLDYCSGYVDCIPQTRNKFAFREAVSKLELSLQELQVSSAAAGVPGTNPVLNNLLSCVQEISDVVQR
T5 sequence (P19525 whole entry): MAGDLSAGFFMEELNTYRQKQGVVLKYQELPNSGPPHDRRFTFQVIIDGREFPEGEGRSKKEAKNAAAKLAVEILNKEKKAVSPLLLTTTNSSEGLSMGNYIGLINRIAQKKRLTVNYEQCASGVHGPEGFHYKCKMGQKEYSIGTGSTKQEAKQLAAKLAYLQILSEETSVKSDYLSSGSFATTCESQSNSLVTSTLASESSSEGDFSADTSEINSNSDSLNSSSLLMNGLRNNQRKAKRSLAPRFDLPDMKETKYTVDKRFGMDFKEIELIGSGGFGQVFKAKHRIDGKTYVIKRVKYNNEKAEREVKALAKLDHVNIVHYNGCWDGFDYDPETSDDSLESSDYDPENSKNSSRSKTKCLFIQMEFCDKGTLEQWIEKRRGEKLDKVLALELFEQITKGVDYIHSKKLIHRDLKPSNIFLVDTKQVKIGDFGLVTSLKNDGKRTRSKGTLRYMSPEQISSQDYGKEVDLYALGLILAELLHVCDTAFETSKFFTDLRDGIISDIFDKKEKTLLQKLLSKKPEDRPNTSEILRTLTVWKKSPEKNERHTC
T10 sequence (P37023 22-503): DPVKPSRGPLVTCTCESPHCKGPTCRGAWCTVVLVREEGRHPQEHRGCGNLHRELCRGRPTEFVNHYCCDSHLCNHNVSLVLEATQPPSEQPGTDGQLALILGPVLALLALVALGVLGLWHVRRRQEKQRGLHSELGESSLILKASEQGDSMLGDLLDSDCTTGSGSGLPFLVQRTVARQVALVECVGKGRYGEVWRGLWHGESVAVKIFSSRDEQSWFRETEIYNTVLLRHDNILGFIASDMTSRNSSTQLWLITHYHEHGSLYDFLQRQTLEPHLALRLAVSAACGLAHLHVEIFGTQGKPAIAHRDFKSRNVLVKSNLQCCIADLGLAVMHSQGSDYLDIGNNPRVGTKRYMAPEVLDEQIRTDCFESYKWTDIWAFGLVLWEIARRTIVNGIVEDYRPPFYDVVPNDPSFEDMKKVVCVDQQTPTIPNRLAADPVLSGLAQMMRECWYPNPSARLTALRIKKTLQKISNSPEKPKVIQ

Consider `Cc1ccc(C(=O)Nc2ccc(CN3CCN(C)CC3)c(C(F)(F)F)c2)cc1C#Cc1cnc2c(Nc3cnn(C)c3)cccn12` [Example 1, 4-methyl-3-((8-((1-methyl-1H-pyrazol-4-yl)amino)imidazo[1,2-a]pyridin-3-yl)ethynyl)-N-(4-((4-methylpiperazin-1-yl)methyl)-3-(trifluoromethyl)phenyl)benzamide], for which the remaining binding at 1 µM in assay [1] amounted to 3%; in assay [2], 0%; in assay [3] it was 100%; in [4] it was 89%; in assay [5], 80%; in assay [6], 0%. The remaining binding at 1 µM was found to be 82% in [7]; 89% in [8]; 29% in [9]; 99% in [10]; 1% in assay [11]; 56% in [12]. In addition, the remaining binding at 1 µM in [13] (ABL1 (H396P)-nonphosphorylated) stood at 1%; in assay [13] (ABL1 (H396P)-phosphorylated) it was 0%.
Take `Cc1cn(-c2cc(NC(=O)c3ccc(C)c(C#Cc4cnc5c(Nc6cnn(C)c6)cccn45)c3)cc(C(F)(F)F)c2)cn1` [Example 12, 4-methyl-N-(3-(4-methyl-1H-imidazol-1-yl)-5-(trifluoromethyl)phenyl)-3-((8-((1-methyl-1H-pyrazol-4-yl)amino)imidazo[1,2-a]pyridin-3-yl)ethynyl)benzamide]: the remaining binding at 1 µM came out at 39% in [1]; 0% in assay [2]; 94% in assay [3]; 87% in assay [4]; 89% in [5]; 1% in assay [6]. Besides, the remaining binding at 1 µM came out at 100% in [7]; 100% in [8]; 100% in assay [9]; 99% in [10]; 11% in assay [11]; 98% in assay [12]. For the same molecule, the remaining binding at 1 µM in assay [13] (ABL1 (H396P)-nonphosphorylated) amounted to 0%; in [13] (ABL1 (H396P)-phosphorylated) it was 10%.
Take `Cc1ccc(NC(=O)C2(C(=O)Nc3ccc(F)cc3)CC2)cc1C#Cc1cnc2c(Nc3cnn(C(C)C)c3)cccn12` [Example 78]: the remaining binding at 1 µM in [1] turned out to be 100%; in assay [2], 0%; in [3] it was 100%; in [4], 100%; in assay [5] it was 100%; in assay [6] it was 14%. The remaining binding at 1 µM in [7] amounted to 100%; in assay [8], 100%; in assay [9] it was 100%; in assay [10] it was 100%; in assay [11], 10%; in assay [12], 100%. The values for the remaining binding at 1 µM in [13] (ABL1 (H396P)-nonphosphorylated) and in [13] (ABL1 (H396P)-phosphorylated) were 4% and 64%, respectively.

For the origin of these results see patent publication US10870647B2, “Imidazopyridine derivative, method for preparing same, and pharmaceutical composition containing same as active ingredient for preventing or treating cancer” (DAEGU-GYEONGBUK MEDICAL INNOVATION FOUNDATION, priority 2016, dated 2020).
